{
  "source": "patent US20170014422A1",
  "about": "(SYNTHON B.V., priority 2014, published 2017)",
  "experiment": "Laboratory observation of polymorphic transformation of polymorph IV in pharmaceutical compositions",
  "format": "physicochemical",
  "details": "especially in pharmaceutical compositions; more pronounced in humid environments",
  "note": "Structures can show the parent of a compound that is named as a salt.",
  "data": [
    {"compound": "COc1cc2c(cc1OC)CC(=O)N(CCCN(C)C[C@H]1Cc3cc(OC)c(OC)cc31)CC2", "note": "[ivabradine hydrochloride polymorph IV, 3-(3-{[((7S)-3,4-dimethoxybicyclo[4.2.0]octa-1,3,5-trien-7-yl)methyl]methylamino}propyl)-7,8-dimethoxy-1,3,4,5-tetrahydro-2H-3-benzazepin-2-one]", "values": [
      {"measurement": "Polymorphic stability over time", "value": "transforms over time into the more stable polymorph β"}
    ]}
  ]
}
